Assay results reported in PMC11487561 (ACS Chemical Neuroscience, 2024).

Experiments:
Sodium Channel, Site 2 = test: Lead Profiling Screen – Eurofins Panlabs; format: binding, rat
In vivo rat iv/po PK = details: male, Sprague-Dawley, plasma, rat (SD); for bioavailability: rat, po
Description: Intravenous pharmacokinetics and plasma-brain level determination (IV PK PBL) VU6016235 […]
Dawley rats (n = 1; 342 gram body weights) via injection into a surgically-implanted jugular vein catheter. […] Blood samples were collected serially from a surgically implanted carotid artery catheter in each animal over multiple post-administration time points (0.033, 0.117, 0.25, 0.5, 1, 2, 4, 7, and 24 hours) into chilled, K2EDTA anticoagulant-fortified tubes and immediately placed on wet ice. […]
For PO PK studies, VU6016235 was formulated in 10% Tween 80 in water and administered orally as a single dose of 10 mg/kg to male Sprague Dawley rats (10 ml/kg, n=2) that were fasted overnight. […]
anticoagulant-fortified tubes and immediately placed on wet ice. The blood samples were then centrifuged (1700 rcf, 5 minutes, 4 °C) in order to obtain plasma samples, which were stored at -80 °C until analysis […]
Samples preparation for bioanalysis
Plasma samples from the in-life phase of the study were thawed at ambient temperature (benchtop), and then aliquots (20 µL per sample) were transferred to a 96-shallow-well (V-bottom) plate. Matrix-matched quality control (QC) samples and a standard curve of […] (1 mg/mL DMSO stock solution) were prepared in blank rat plasma (K2EDTA-treated) or blank brain homogenate via serial dilution and transferred (20 µL each) to the plate along with multiple blank plasma and brain homogenate samples. Acetonitrile (120 µL) containing IS (10 nM carbamazepine) was added to each well of the plate to precipitate protein. The plate was then centrifuged (4000 rcf, 5 minutes, ambient temperature), and resulting supernatants (60 µL each) were transferred to a new 96-shallow-well (V-bottom) plate containing an equal volume (60 µL per well) of water (Milli-Q purified). […]
The plasma standard curve and QCs were used for compounds quantitation in brain.
(§1) Binding in plasma from rat and human.
(§2) Determination of compounds’ fraction unbound (f u) in plasma from rat and human was conducted in vitro via equilibrium dialysis using HTDialysis membrane plates. Dialysis membranes (four paired strips per HTD assay) were hydrated as described by the manufacturer and inserted into the HTD plate, which was assembled and prepared for sample addition by the dispensing of blank buffer (DPBS, 100 µL/well) into the ‘top half’ of each membrane-split well. Each compound was diluted into plasma from each species (5 µM final concentration), which was aliquoted in triplicate to the ‘bottom half’ of the prepared HTD plate wells. The HTD plate was sealed and incubated for 6 hours at 37 °C. Following incubation, each well (both top and bottom halves) were transferred (20 µL) to the corresponding wells of a 96-shallow-well (V-bottom) plate. The daughter plates were then matrix-matched (buffer side wells received equal volume of plasma, and plasma side wells received equal volume of buffer), and extraction solution (120 µL; acetonitrile containing 50 nM carbamazepine as IS) was added to all wells of both daughter plates to precipitate protein and extract test article. The plates were then sealed and centrifuged (3500 rcf) for 10 minutes at ambient temperature. Supernatant (60 µL) from each well of the daughter plates was then transferred to the corresponding wells of new daughter plates (96-shallow-well, V bottom) containing water (Milli-Q, 60 µL/well), and the plates were sealed in preparation for LC-MS/MS analysis (see below). fu was calculated as (analyte to IS MS peak area ratio from Trans-buffer side) / (analyte to IS MS peak area ratio from Cis-plasma side). Mean values for each species were calculated from 3 replicates.

Transporter, GABA = test: Lead Profiling Screen – Eurofins Panlabs; format: binding, rat
[1] = MDCK-MDR1 permeability assay; format: in vitro ADME; details: dog
Dopamine D1 = biological target: T1, Dopamine D1 (Homo sapiens, UniProt P21728); test: Lead Profiling Screen – Eurofins Panlabs; format: binding; details: read-out: % inh at 10 μM
T1 construct: Eurofins Panlabs (contract screen)
T1 sequence (P21728 whole entry): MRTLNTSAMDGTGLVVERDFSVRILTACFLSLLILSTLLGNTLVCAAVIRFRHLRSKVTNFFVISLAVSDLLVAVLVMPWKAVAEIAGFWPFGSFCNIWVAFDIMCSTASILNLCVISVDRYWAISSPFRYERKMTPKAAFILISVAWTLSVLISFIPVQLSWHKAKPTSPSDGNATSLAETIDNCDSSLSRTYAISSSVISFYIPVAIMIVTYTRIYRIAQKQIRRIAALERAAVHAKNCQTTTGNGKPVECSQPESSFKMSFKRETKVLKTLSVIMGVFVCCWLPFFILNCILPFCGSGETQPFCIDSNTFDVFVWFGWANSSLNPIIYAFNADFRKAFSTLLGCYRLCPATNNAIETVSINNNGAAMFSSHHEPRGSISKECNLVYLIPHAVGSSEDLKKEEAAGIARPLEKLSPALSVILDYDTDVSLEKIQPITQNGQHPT

Nicotinic Acetylcholine = test: Lead Profiling Screen – Eurofins Panlabs; format: binding, human
human M5 = human M5 (Homo sapiens, UniProt P08912); test: Calcium mobilization assay, muscarinic selectivity; format: cell-based
human M5, sequence (P08912 whole entry): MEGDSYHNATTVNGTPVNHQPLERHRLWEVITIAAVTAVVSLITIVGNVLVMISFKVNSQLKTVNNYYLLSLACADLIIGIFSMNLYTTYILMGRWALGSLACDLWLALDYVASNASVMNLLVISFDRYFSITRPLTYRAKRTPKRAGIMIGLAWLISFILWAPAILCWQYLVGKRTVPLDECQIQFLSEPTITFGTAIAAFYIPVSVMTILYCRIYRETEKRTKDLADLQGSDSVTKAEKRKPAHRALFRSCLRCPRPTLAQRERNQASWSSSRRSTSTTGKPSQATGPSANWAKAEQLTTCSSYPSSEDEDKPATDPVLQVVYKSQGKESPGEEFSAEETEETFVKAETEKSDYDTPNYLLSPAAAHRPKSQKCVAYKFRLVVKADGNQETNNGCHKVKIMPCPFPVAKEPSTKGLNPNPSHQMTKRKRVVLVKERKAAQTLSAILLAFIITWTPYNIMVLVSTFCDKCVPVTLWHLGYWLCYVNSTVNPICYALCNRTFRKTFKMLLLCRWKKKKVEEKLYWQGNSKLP

Androgen (Testosterone) = test: Lead Profiling Screen – Eurofins Panlabs; format: binding, human
Imidazoline I2, Central = test: Lead Profiling Screen – Eurofins Panlabs; format: binding, rat
Opiate μ (OP3, MOP) = Opiate μ (OP3, MOP) (Homo sapiens, UniProt P35372); test: Lead Profiling Screen – Eurofins Panlabs; format: binding; details: read-out: % inh at 10 μM
Opiate μ (OP3, MOP), sequence (P35372 whole entry): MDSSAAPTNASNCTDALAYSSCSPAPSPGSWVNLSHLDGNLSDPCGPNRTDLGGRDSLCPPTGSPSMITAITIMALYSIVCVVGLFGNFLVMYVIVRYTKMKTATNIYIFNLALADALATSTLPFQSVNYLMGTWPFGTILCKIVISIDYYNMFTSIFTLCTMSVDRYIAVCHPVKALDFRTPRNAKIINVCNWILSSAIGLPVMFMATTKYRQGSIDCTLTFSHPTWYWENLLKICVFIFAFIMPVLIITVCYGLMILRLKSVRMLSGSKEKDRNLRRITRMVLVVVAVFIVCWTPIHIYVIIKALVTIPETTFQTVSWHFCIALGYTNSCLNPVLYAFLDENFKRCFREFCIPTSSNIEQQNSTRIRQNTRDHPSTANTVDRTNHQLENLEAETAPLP

human M3 = human M3 (Homo sapiens, UniProt P20309); test: Calcium mobilization assay, muscarinic selectivity; format: cell-based
human M3, sequence (P20309 whole entry): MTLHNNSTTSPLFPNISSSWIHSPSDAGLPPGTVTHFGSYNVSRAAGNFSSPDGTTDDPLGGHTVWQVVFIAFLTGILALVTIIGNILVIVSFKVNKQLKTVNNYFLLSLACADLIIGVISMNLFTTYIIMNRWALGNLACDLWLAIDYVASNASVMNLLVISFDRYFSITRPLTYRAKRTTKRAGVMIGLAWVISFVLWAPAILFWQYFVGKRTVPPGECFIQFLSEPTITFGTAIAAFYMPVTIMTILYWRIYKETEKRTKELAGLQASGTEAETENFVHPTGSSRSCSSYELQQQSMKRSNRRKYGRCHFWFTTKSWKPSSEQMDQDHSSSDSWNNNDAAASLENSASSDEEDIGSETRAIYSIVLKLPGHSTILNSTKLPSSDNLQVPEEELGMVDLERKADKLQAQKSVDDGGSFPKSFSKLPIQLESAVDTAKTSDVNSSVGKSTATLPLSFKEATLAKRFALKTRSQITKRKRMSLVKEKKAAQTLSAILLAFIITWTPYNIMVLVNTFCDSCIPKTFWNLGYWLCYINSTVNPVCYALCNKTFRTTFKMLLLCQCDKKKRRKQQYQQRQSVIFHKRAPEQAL

Histamine H3 = Histamine H3 (Homo sapiens, UniProt Q9Y5N1); test: Lead Profiling Screen – Eurofins Panlabs; format: binding; details: read-out: % inh at 10 μM
Histamine H3, sequence (Q9Y5N1 whole entry): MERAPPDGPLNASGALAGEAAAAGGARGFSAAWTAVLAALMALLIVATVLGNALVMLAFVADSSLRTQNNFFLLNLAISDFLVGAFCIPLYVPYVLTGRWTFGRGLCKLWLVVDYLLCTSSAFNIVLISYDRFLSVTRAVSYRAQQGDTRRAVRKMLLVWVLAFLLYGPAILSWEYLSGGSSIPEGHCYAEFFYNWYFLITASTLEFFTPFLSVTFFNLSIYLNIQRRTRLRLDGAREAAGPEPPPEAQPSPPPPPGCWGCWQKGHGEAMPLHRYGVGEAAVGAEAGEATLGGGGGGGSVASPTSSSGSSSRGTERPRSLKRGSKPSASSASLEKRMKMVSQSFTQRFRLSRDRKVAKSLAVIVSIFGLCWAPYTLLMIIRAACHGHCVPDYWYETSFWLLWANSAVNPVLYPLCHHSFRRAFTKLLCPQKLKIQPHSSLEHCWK

Muscarinic M3 = Muscarinic M3 (Homo sapiens, UniProt P20309); test: Lead Profiling Screen – Eurofins Panlabs; format: binding; details: read-out: % inh at 10 μM
Muscarinic M3, sequence (P20309 whole entry): as the sequence (P20309 whole entry) above

[2] = test system: Glutamate, NMDA, Phencyclidine; test: Lead Profiling Screen – Eurofins Panlabs; format: binding, rat
Endothelin ETA = biological target: T2, Endothelin ETA (Homo sapiens, UniProt P25101); test: Lead Profiling Screen – Eurofins Panlabs; format: binding; details: read-out: % inh at 10 μM
T2 construct: Eurofins Panlabs (contract screen)
T2 sequence (P25101 21-427): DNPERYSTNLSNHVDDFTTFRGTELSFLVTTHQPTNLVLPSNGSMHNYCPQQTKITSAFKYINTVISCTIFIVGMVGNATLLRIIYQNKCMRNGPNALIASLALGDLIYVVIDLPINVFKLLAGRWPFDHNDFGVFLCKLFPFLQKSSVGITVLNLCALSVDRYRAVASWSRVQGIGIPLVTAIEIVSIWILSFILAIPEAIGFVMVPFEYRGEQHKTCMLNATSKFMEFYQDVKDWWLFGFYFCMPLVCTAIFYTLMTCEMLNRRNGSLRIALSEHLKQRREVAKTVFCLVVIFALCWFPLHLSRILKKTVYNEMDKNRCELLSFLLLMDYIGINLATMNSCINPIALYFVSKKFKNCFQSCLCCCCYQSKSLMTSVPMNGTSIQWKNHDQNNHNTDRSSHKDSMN

Opiate δ1 (OP1, DOP) = Opiate δ1 (OP1, DOP) (Homo sapiens, UniProt P41143); test: Lead Profiling Screen – Eurofins Panlabs; format: binding; details: read-out: % inh at 10 μM
Opiate δ1 (OP1, DOP), sequence (P41143 whole entry): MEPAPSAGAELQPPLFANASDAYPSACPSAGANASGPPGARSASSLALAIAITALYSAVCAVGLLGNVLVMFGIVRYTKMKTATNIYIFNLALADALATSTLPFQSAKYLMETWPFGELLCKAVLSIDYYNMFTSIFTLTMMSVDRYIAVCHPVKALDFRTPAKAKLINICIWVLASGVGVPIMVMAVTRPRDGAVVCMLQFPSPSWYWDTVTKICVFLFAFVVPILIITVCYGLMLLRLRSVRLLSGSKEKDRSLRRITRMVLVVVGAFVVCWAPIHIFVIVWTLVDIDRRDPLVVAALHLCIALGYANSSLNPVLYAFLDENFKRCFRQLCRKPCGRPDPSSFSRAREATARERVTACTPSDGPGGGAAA

Sigma σ1 = Sigma σ1 (Homo sapiens, UniProt Q99720); test: Lead Profiling Screen – Eurofins Panlabs; format: binding; details: read-out: % inh at 10 μM
Sigma σ1, sequence (Q99720 whole entry): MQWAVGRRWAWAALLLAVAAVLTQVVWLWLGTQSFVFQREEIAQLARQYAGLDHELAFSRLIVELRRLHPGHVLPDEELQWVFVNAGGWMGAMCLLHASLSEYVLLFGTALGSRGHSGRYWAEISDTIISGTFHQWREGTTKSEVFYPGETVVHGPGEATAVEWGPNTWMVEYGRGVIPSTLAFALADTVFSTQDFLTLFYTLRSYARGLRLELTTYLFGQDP

Dopamine D3 = biological target: T3, Dopamine D3 (Homo sapiens, UniProt P35462); test: Lead Profiling Screen – Eurofins Panlabs; format: binding; details: read-out: % inh at 10 μM
T3 construct: Eurofins Panlabs (contract screen)
T3 sequence (P35462 whole entry): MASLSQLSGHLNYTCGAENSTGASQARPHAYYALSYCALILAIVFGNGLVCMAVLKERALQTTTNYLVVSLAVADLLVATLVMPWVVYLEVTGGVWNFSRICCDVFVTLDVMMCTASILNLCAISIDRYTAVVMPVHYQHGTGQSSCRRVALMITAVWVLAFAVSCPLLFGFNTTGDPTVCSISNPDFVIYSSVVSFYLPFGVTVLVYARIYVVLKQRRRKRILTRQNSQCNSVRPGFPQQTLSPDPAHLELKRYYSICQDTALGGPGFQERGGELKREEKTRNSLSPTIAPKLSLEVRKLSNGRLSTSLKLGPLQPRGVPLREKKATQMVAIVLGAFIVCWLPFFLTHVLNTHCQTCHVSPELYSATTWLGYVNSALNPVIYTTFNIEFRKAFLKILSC

Rolipram = test: Lead Profiling Screen – Eurofins Panlabs; format: binding, rat
[3] = Binding in plasma from rat (equilibrium dialysis); format: in vitro ADME; details: fraction unbound, equilibrium dialysis, read-out: rat fu,plasma
Description: as §1, §2

For Cc1nc(C)c2c(n1)sc1c(NCc3ccc(C(C)(C)O)cc3)nccc12 [22g], which “% inh at 10 μM” value (Sodium Channel, Site 2) is on record?
The value was 3%.

What about the MRT (In vivo rat iv/po PK; iv 1.0 mg/kg) of the same compound?
The MRT was 4.3 h.

What about the half-life (In vivo rat iv/po PK; iv 1.0 mg/kg) of the same compound?
The half-life was 3.4 h.

What about the clearance (In vivo rat iv/po PK; iv 1.0 mg/kg, read-out: CLp) of the same compound?
The clearance was 0.294 L/h/kg.

What about the Vd (In vivo rat iv/po PK; iv 1.0 mg/kg, read-out: Vss) of the same compound?
Its Vd is 1.3 L/kg.

And the AUC(0-inf) (In vivo rat iv/po PK; po 3.0 mg/kg)?
Its AUC(0-inf) is 8.41 µg·h/mL.

What about the Cmax (In vivo rat iv/po PK; po 3.0 mg/kg) of the same compound?
The Cmax was 0.657 µg/mL.

What about the Tmax (In vivo rat iv/po PK; po 3.0 mg/kg) of the same compound?
Its Tmax is 3 h.

And the AUC(0-inf) (In vivo rat iv/po PK; po 30.0 mg/kg)?
The AUC(0-inf) was 59.2 µg·h/mL.

What about the Cmax (In vivo rat iv/po PK; po 30.0 mg/kg) of the same compound?
Its Cmax is 4.46 µg/mL.

What about the Tmax (In vivo rat iv/po PK; po 30.0 mg/kg) of the same compound?
Its Tmax is 5 h.

What about the bioavailability (In vivo rat iv/po PK; 3 mg/kg, po 3.0 mg/kg) of the same compound?
Its bioavailability is at least 100%.

What about the bioavailability (In vivo rat iv/po PK; 30 mg/kg, po 30.0 mg/kg) of the same compound?
The bioavailability was 84%.

What about the “% inh at 10 μM” value (Transporter, GABA) of the same compound?
The value was 0%.

And the Papp A→B [1]?
Its Papp A→B is 470 nm/s.

What about the Papp B→A [1] of the same compound?
Its Papp B→A is 680 nm/s.

And the inhibition at 10 µM (Dopamine D1)?
The inhibition at 10 µM was 21%.

And the “% inh at 10 μM” value (Nicotinic Acetylcholine)?
Its value is -2%.

What about the “human M5 %Ach Max” value (human M5) of the same compound?
Its value is “inactive”.

And the “human M5 EC50” value (human M5)?
The value was “inactive”.

And the “% inh at 10 μM” value (Androgen (Testosterone))?
Its value is 5%.

What about the “% inh at 10 μM” value (Imidazoline I2, Central) of the same compound?
The value was -1%.

And the inhibition at 10 µM (Opiate μ (OP3, MOP))?
The inhibition at 10 µM was 7%.

And the “human M3 %Ach Max” value (human M3)?
The value was “inactive”.

What about the “human M3 EC50” value (human M3) of the same compound?
Its value is “inactive”.

What about the inhibition at 10 µM (Histamine H3) of the same compound?
The inhibition at 10 µM was 25%.

What about the inhibition at 10 µM (Muscarinic M3) of the same compound?
The inhibition at 10 µM was 4%.

And the “% inh at 10 μM” value [2]?
Its value is -2%.

And the inhibition at 10 µM (Endothelin ETA)?
Its inhibition at 10 µM is -2%.

What about the inhibition at 10 µM (Opiate δ1 (OP1, DOP)) of the same compound?
The inhibition at 10 µM was -2%.

What about the inhibition at 10 µM (Sigma σ1) of the same compound?
Its inhibition at 10 µM is 3%.

And the inhibition at 10 µM (Dopamine D3)?
Its inhibition at 10 µM is 3%.

And the “% inh at 10 μM” value (Rolipram)?
The value was 5%.

What about the fraction unbound at 6 h, 5 µM [3] of the same compound?
The fraction unbound at 6 h, 5 µM was 0.024.
